From paper PMC11926880, “Procognitive Potential of Neuroprotective Triazine 5-HT6 Receptor Antagonists Tested on Chronic Activity In Vivo in Rats: Computer-Aided Insight into the Role of Chalcogen-Differences on the Pharmacological Profile” (ACS Chemical Neuroscience, 2025)
Where two headings read alike, the source gives them in different places.

What was measured:
rats [1] = assay: NORT after 21 day administration, discrimination index; assay type: in vivo, rat; details: for reversal of (+)MK-801-induced memory disturbances (DI): (+)MK-801 0.1 mg/kg
Experimental: Standard laboratory food (LSM-B) and filtered water as well as environment enrichment were freely available. Animals were randomly divided into treatment groups using a computer-based random order generator. All of the experiments were performed by two observers unaware of the treatment applied between 9:00 and 14:00 on separate groups of animals.
In the NOR test (NORT), rats were randomly divided into experimental groups (n = 8/group). […] All compounds were prepared immediately before administration and were injected intraperitoneally (i.p.) in a constant volume of 2 mL/kg. […] The control group received 1% Tween 80 on the same schedule.
The test was carried out according to the method described by Ennaceur.[46] NORT was conducted in two black-painted wood boxes (60 cm × 60 cm × 60 cm). A video camera mounted above the boxes recorded all experiments. Two days before the test, the rats were placed in the empty experimental boxes for 5 min as a habituation to the test area. On the third day, the test was performed in 2 trials lasting for 3 min at one-hour intervals. First session, familiarization (T1) with two identical objects (A1 and A2) located in the opposite corners of the boxes, approximately 10 cm from the walls, and second trial, recognition (T2) with one familiar (A) and one novel object (B). Metal cans and glass jars with sand were used as the objects. The boxes were cleaned and dried after each measurement. The exploration time (E) of the objects (such as looking, licking, sniffing, or touching while sniffing) during T2 was measured, and the discrimination index (DI) was calculated according to the following formula: DI = (EB – EA)/(EA + EB).
The normality of data distribution and the homogeneity of variance were checked using the Shapiro–Wilk’s test and Levene’s test, respectively. All behavioral results are shown as the means ± SEM.

rats [2] = details: acute administration, cited from earlier work
SH-SY5Y cells [3] = assay: ROS assay (2',7'DCFH2-DA), rotenone-induced neurotoxicity; assay type: cell-based, human; details: ROT 32.5 μM alone, 3 h
Experimental: The ROS measurement was assayed by 2′,7′-dichlorofluorescin diacetate (2′, 7′DCFH2-DA, Sigma, no. D6883). The protocol was previously described in detail.[10] […] The following day, all treatments were carried out with warmed HBSS containing 25 mM HEPES (hereafter referred to as HBSS), and during the operational steps, the cells were kept at 37 °C to minimize temperature stress.

[4] = parameters: method as in PMID 38190615, PMID 35228010; details: AMES test; cited from earlier work
SH-SY5Y cells [5] = assay: qRT-PCR of neurodegeneration-associated genes; assay type: cell-based, human; details: 24 h
[6] = parameters: method as in PMID 38190615; details: serum, cited from earlier work
HT-22 cell line [7] = assay: protection against Aβ1–42, cell membrane damage (ToxiLight); assay type: cell-based, mouse; details: 10 μM pretreatment 1 h, Aβ1–42 35 μM 16 h
Experimental: Cells were cultured in Dulbecco’s modified Eagle’s Medium-high glucose (DMEM, GlutaMAX ThermoFisher) supplemented with 10% inactivated fetal bovine serum heat (Thermo Fisher), 100 IU/mL penicillin (Merck), and 100 μg/mL streptomycin (Merck). Cells were cultured in flasks (area 175 cm^2, Nunc) and incubated at 37 °C, 5% CO2. To measure the neuroprotective effect against Aβ1–42, cells were placed in a 96-well culture plate (5 × 10^3 cells per well, Falcon). To measure the toxicity of tested compounds, cells were placed in a 96-well culture plate (5 × 10^3 and 2 × 10^4 cells per well, Falcon).
Stock solutions were prepared at a concentration of 10 mM for the tested compounds. A minimum of 1 mg of each tested compound was weighed and dissolved in an appropriate volume of dimethyl sulfoxide (DMSO). Serial dilutions were prepared in DMSO, and then, the diluted compounds were transferred to phosphate-buffered saline (PBS), mixed, and put into a medium with adherent cells. Before the assays, eventual precipitation or opalescence was checked. […]
Then, 20 μL of adenylate kinase detection reagent was added. The luminescence was measured after 10 min of incubation with a plate reader, POLARstar Omega (BMG Labtech). The results are expressed as a percentage of the control (Aβ1–42), corresponding to the percentage of dead cells concerning the control sample.

[8] = 1 mg/kg i.p., cited from earlier work
HT-22 cell line [9] = assay: protection against Aβ1–42, ROS (CellROX); assay type: cell-based, mouse; details: 10 μM pretreatment 1 h, Aβ1–42 35 μM 16 h
Experimental: Cells were cultured in Dulbecco’s modified Eagle’s Medium-high glucose (DMEM, GlutaMAX ThermoFisher) supplemented with 10% inactivated fetal bovine serum heat (Thermo Fisher), 100 IU/mL penicillin (Merck), and 100 μg/mL streptomycin (Merck). Cells were cultured in flasks (area 175 cm^2, Nunc) and incubated at 37 °C, 5% CO2. To measure the neuroprotective effect against Aβ1–42, cells were placed in a 96-well culture plate (5 × 10^3 cells per well, Falcon).
Stock solutions were prepared at a concentration of 10 mM for the tested compounds. A minimum of 1 mg of each tested compound was weighed and dissolved in an appropriate volume of dimethyl sulfoxide (DMSO). Serial dilutions were prepared in DMSO, and then, the diluted compounds were transferred to phosphate-buffered saline (PBS), mixed, and put into a medium with adherent cells. Before the assays, eventual precipitation or opalescence was checked.
Aβ1–42 (Merck) was initially dissolved in 1,1,1,3,3,3- hexafluor-2-propanol (Merck). […] After this time, the Aβ1–42 solution was evaporated by using nitrogen gas. Next, DMSO was added to obtain a 2 mM stock solution of β-amyloid. […]
After the end of incubation with the tested compounds, the supernatant was removed, and cells were incubated with CellROX (5 μM) in DMEM FluoroBrite (ThermoFisher) for 1 h at 37 °C. The results are expressed as a percentage of control (Aβ1–42).

HepG2 = system: HepG2; parameters: method as in PMID 38190615, PMID 35228010; details: tested at 0.1–100 μM; cited from earlier work
SH-SY5Y cells [10] = assay: MTS assay 72 h, neurotoxic effect; assay type: cell-based, human; details: 10 and 50 μM
Experimental: SHSY5Y cells were grown in DMEM supplemented by 10% FBS, L-glutamine (2 mM), and penicillin (100u/mL)/streptomycin (100 μg/mL). The cell line was tested for mycoplasma using DAPI staining and the LookOut Mycoplasma PCR Detection Kit (MP0035, Merck). The cell line was authenticated after thawing by a morphology check, cell proliferation rate evaluation, and species verification by PCR. Bacteria contamination was excluded. […] Subsequently, cells were subjected to a CellTiter 96 AQueous One Solution Cell Proliferation Assay (Promega), according to the manufacturer’s protocol. The absorbance at 490 nm was evaluated to estimate the cell number.

[11] = parameters: method as in PMID 38190615, PMID 35228010; details: LC/MS after biotransformation in rLMs; cited from earlier work
SH-SY5Y cells [12] = details: 50 μM, 27 h; cited from earlier work
NRF2 = assay: Western blot for NRF2 (total and nuclear extracts); assay type: cell-based, human; details: 10 μM, 24 h

## COc1cc2c(cc1OC)C(=O)C(CC1CCN(Cc3ccccc3)CC1)C2 (stereo not drawn) [donepezil, reference compound]
Rats [1]; 1 mg/kg/day i.p., 21 days, without (+)MK-801
  influence on memory compared to vehicle-treated rats (DI): No memory changing
Rats [1]; 1 mg/kg/day i.p., 21 days
  reversal of (+)MK-801-induced memory disturbances (DI): reverse memory disturbances
Rats [1]; i.p., 21 days, reversal of (+)MK-801-induced memory impairments
  minimal active chronic dose: 1 mg/kg/day
Rats [2]; rat
  active dose in NOR test (significantly reversed MK-801 memory disturbances): g Dose of a compound that in a statistically significant manner reversed memory disturbances caused by MK-801 in the novel object recognition (NOR) test in rats;[12],[13] active dose for donepezil was 1 mg/kg. mg/kg i.p

## C=C(C)[C@H]1Cc2c(ccc3c2O[C@@H]2COc4cc(OC)c(OC)cc4[C@@H]2C3=O)O1 [ROT, Rotenone, reference compound]
SH-SY5Y cells [3]
  ROS level (Ctr set as 100%): 176%

## CN1CCN(c2nc(N)nc(C(C)(C)[Se]c3ccc4ccccc4c3)n2)CC1 [PPK-32]
[4]
  mutagenic: no
SH-SY5Y cells [5]; 10 μM
  expression of beta-secretase BACE1: negatively regulate
SH-SY5Y cells [5]; 10 and 50 μM
  NRF2 transcription: neither WA-22 nor PPK-32 were able to stimulate its transcription
  expression of NQO1, SOD1, and HO1: induce the expression
  expression of pro-inflammatory gene NFkB: neither WA-22 nor PPK-32 were able to downregulate
[6]; 1 mg/kg i.p.
  AUC0–∞: 1833.92 ng·min/mL
[6]; 1.0 mg/kg i.p.
  Cmax: 34.9 ng/mL
Rats [1]; 1 mg/kg/day i.p., 21 days
  reversal of (+)MK-801-induced memory disturbances (DI): inactive
Rats [1]; 3 mg/kg/day i.p., 21 days
  reversal of (+)MK-801-induced memory disturbances (DI): significantly reversed
HT-22 cell line [7]
  protection of cell integrity against membrane destruction caused by Aβ1–42: slightly more potent than the thioether WA-22
[8]
  detected in rat organs up to (time after administration): up to 120 min
[8]; brain, highest value 30 min after administration
  Cmax: 54.9 ng/g
[8]; liver
  t1/2λz: 1.42 h
HT-22 cell line [9]
  decrease of ROS induced by Aβ: displayed the ability to decrease ROS
HepG2
  hepatotoxic (statistically significant HepG2 viability decrease): >100 µM
SH-SY5Y cells [10]
  neurotoxic effect (MTS): no significant differences
Rats [2]; male Wistar rats, (+)MK-801
  memory-protective action at doses as low as: 0.3 mg/kg
[11]
  metabolic stability, % of remaining structure: 37%
SH-SY5Y cells [12]
  reduction of cell viability compared to Ctr: 45%
NRF2; GAPDH loading control
  NRF2 protein amount (total extract): protein amount was not modulated
NRF2; nuclear extracts, H3 loading control
  NRF2 translocation from cytoplasm to nucleus: distinctly stronger than that upon WA-22 treatment

## C[C@]12N[C@H](Cc3ccccc31)c1ccccc12 [(+)MK-801, reference compound]
Rats [1]; 0.1 mg/kg i.p. once, 30 min before the test
  effect on memory functions (DI): induced deficits in memory functions
